Measurements as given in patent EP3981864A1, “DETERGENT COMPOSITION” (priority 2020, dated 2022).

What was measured:
[1] = tested on: Medicago truncatula αDOX (SEQ ID NO: 9), fatty acid alpha-dioxygenase, A4PRI0, N-terminal His-tag variant SEQ ID NO: 265 (comparative); assay: Alpha-dioxygenase activity assay (oxygen consumption, TON); format: biochemical; details: fatty acid 100 µM, enzyme 6 ppm, 50 mM HEPES pH 9.0, 37°C; initial rate of oxygen consumption / enzyme concentration
Description: Medicago truncatula αDOX (SEQ ID NO: 9) is a fatty acid alpha-dioxygenase that converts fatty acids into the corresponding 2-hydroperoxy fatty acids and is included as a comparative example of the present invention. A codon optimized gene (SEQ ID NO: 264) encoding for an alpha-dioxygenase variant (SEQ ID NO: 265), including an N-terminal amino acid sequence containing a His-tag was designed and synthesized by Genscript. After gene synthesis, the protein was expressed and purified. In brief, the complete synthetic gene sequence was subcloned into a pET30a vector using the NdeI/HindIII cloning sites. For heterologous expression, Escherichia coli BL21 (DE3) cells were transformed with the recombinant plasmid and a single colony was inoculated into LB medium containing kanamycin (50 mg/L). A pre-starter culture was then inoculated into flasks containing Magic Media (Thermo Fisher, Catalog # K6803) supplemented with kanamycin (50 mg/L) and incubated at 16 °C for 72 h. At an OD600nm = 0.5 - 1.0, 5-aminolevulinic acid (final concentration 0.5 mM) was added. Cells were harvested by centrifugation at 5000 rpm and 4°C and the pellet was lysed using a bacterial cell lysis buffer (B-PER - Themo Fisher, Waltham, MA). After centrifugation, the supernatant was collected, and the protein was purified by one-step purification using HisPur™ Ni-NTA Spin Columns (Thermo Scientific, Catalog # 88226) and standard protocols known in the art. The protein was concentrated using a 10 kDa MW cutoff Amicon Ultra centrifugal filter unit (Millipore Sigma, Catalog# UFC901024), followed by desalting using a disposable PD-10 desalting column (GE Healthcare Life Sciences, Catalog# 17085101) and a buffer containing 50 mM Tris-HCl, 500 mM NaCl, and 10% Glycerol at pH 8.0. […]
(§1) Reactions with alpha-dioxygenases were performed as follows. […] The reaction was incubated for up to 10 minutes at 37°C with 200 rpm agitation and the conversion was monitored using an oxygen sensor. The TON (in s-1) were calculated as the ratio between the initial rate of oxygen consumption (in µM/s) and the concentration of enzyme (in µM). […]

[2] = tested on: Mycolicibacterium fortuitum αDOX (SEQ ID NO: 7), fatty acid alpha-dioxygenase, K0VMX8, N-terminal His-tag variant SEQ ID NO: 261; assay: as above; format: biochemical; details: fatty acid 100 µM, enzyme 6 ppm, 50 mM HEPES pH 9.0, 37°C; initial rate of oxygen consumption / enzyme concentration
Description: Mycolicibacterium fortuitum αDOX (SEQ ID NO: 7) is a fatty acid alpha-dioxygenase that converts fatty acids into the corresponding 2-hydroperoxy fatty acids and is included as an example of the present invention. A codon optimized gene (SEQ ID NO: 260) encoding for an alpha-dioxygenase variant (SEQ ID NO: 261), including an N-terminal amino acid sequence containing a His-tag was designed and synthesized by Genscript. After gene synthesis, the protein was expressed and purified. In brief, the complete synthetic gene sequence was subcloned into a pET30a vector using the NdeI/HindIII cloning sites. For heterologous expression, Escherichia coli BL21 (DE3) cells were transformed with the recombinant plasmid and a single colony was inoculated into LB medium containing kanamycin (50 mg/L). A pre-starter culture was then inoculated into flasks containing Magic Media (Thermo Fisher, Catalog # K6803) supplemented with kanamycin (50 mg/L) and incubated at 16 °C for 72 h. At an OD600nm = 0.5 - 1.0, 5-aminolevulinic acid (final concentration 0.5 mM) was added. Cells were harvested by centrifugation at 5000 rpm and 4°C and the pellet was lysed using a bacterial cell lysis buffer (B-PER - Themo Fisher, Waltham, MA). After centrifugation, the supernatant was collected, and the protein was purified by one-step purification using HisPur™ Ni-NTA Spin Columns (Thermo Scientific, Catalog # 88226) and standard protocols known in the art. The protein was concentrated using a 10 kDa MW cutoff Amicon Ultra centrifugal filter unit (Millipore Sigma, Catalog# UFC901024), followed by desalting using a disposable PD-10 […], 500 mM NaCl, and 10% Glycerol at pH 8.0. The purified enzyme was stored at -80 °C until use.
as §1

## CCCCCCCC/C=C\CCCCCCCC(=O)O [Oleic Acid]
[1]
  Oleic Acid, TON: 0.06 s⁻¹
[2]
  Oleic Acid, TON: 0.00 s⁻¹

## CCCCCCCCCCCCCCCCCC(=O)O [Stearic Acid]
[1]
  Stearic Acid, TON: 0.02 s⁻¹
[2]
  Stearic Acid, TON: 1.66 s⁻¹

## CCCCCCCCCCCCCCCC(=O)O [Palmitic Acid]
[1]
  Palmitic Acid, TON: 0.57 s⁻¹
[2]
  Palmitic Acid, TON: 0.00 s⁻¹
